# In patent US20090074885A1, “Reversible Hydrophobic Modification of Drugs for Improved Delivery to Cells” (Roche Madison Inc., priority 2003, published 2009):
# What was measured:
# MC38 tumor = assay: Survival after LABI in MC38 tumor bearing mice; format: in vivo, C57BL mice; conditions: 0.150 μmol by LABI, compared to hydrolyzed C12PMMA-PI
# Experimental: FIG. 13. Days of survival following LABI delivery of C12PMMA-PI (III) or hydrolyzed C12PMMA-PI to C57BL mice. Following three weeks of MC38 tumor development C12PMMA-PI or Hydrolyzed C12PMMA-PI (0.150 μmol in 20 μl DMSO, 200 μl ITG) were delivered by LABI. The mouse abdomen was closed 4 min after drug treatment and the animals were monitored for survival time.
# In vivo antitumor effect following a liver arterial bolus injection with a RRH-PI to MC 38 tumor bearing mice. LABI was conducted as previously described in order to monitor the antitumor effect of an RRH-PI prodrug. In the experiment, III (n=11) or hydrolyzed C12PMMA-PI (n=9) were injected as previously described, the mouse abdomen was closed after drug treatment and the animals were monitored for survival time. Statistical analysis was conducted using a t-test (two tailed distribution and two sample—unequal variance, Excel).
# SK-OV-3 ovarian tumors = assay: Intraperitoneal perfusion chemotherapy (IPPC) in SK-OV-3 mouse model; format: in vivo
# Experimental: In a separate experiment, ovarian cancer development was monitored until signs of ascitis (4-5 wks). At this time, a test IPPC injection was conducted with C12PMMA-PI by adapting methodology typically used for peritoneal perfusion. Briefly, two 23 G Abbocath-T effluent catheters with multiple perforations were inserted into the peritoneal cavity and advanced to the region of the ovaries on both sides of the vertebra. The ascitic fluid was slowly aspirated with minimal negative pressure. Then an additional 23 G perforated catheter was inserted into abdomen and positioned on top of abdominal organs. 1 mL of drug/DMF/ITG solution was infused over 1 min, followed by repeated gentle massage. 5-7 min post administration, peritoneal fluid was again aspirated, and the peritoneal cavity was perfused with 10 mL of PBS via the top catheter, together with simultaneous aspiration via the lower two catheters. Special care was taken to avoid elevated abdominal pressure during the procedure. […] Confocal microscopy indicated a similar staining pattern as observed previously, with strong propidium iodide nuclear labeling of all of the outer cells exposed to peritoneal cavity, including ovarian tumors. […] All cells exposed to peritoneal cavity and thereby to the prodrug solution indicated prodrug uptake and staining, including: mesentery cells, outer layer of cells of abdominal organs, and disseminated peritoneal ovarian tumors. The tumor lesions still appeared to be more susceptible to drug uptake, indicating both greater tissue penetration and intense PI^+-staining as compared to normal abdominal tissue, with the exception of the mesentery which was also was heavily PI^+.
# cells [1] = assay: Testing of mixing chamber: PI uptake in cells; format: cell-based; conditions: PI in DMF and isotonic glucose through mixing chamber
# Source text: Development of a Mixing Chamber. Due to the instability of the RRH-PI prodrugs in water, it was necessary to dissolve them in a small amount of pharmaceutically acceptable organic solvent (OS) and mix them with an aqueous solution immediately prior to delivery. Rapid and efficient mixing was critical for optimum delivery and minimalization of toxicity due to the organic solvent. A passive mixing chamber with colliding flows was utilized to mix the drug/RRH-prodrug (dissolved in a carrier solvent such as an organic solvent) with an aqueous solution immediately prior use. Two syringe pumps (Harvard Pumps, PHD 2000) were utilized to deliver the solutions to the mixing chamber. Typically mixtures were 1:10 by volume with 0.67 μl of PI or RRH-PI/OS solution (7.48 mM) diluted with 6.7 μl of isotonic glucose (ITG), buffer, or media per sec, for a total delivery volume of 220 μl (0.150 μmol of PI or RRH-PI) over 30 sec (final organic solvent concentration of 9.1% by vol.).
# The mixing chamber (FIG. 3) was constructed from 18 G stainless steel tubing (38 mm in length) by drilling a 0.2 mm hole at a 45 degree angle in the tubing wall and then inserting 30 G stainless steel tubing. The 30 G stainless tubing was angled and advanced into the 18 G tubing so as to be centered within the larger tubing and then soldered in place. […]
# cells [2] = assay: SYTOX Green dead cell indicator after prodrug treatment; format: cell-based; conditions: following treatment with prodrug
# Experimental: (§1) In Vitro cellular uptake of PI, RRH-PI compounds, and IV evaluated by fluorescence measurements. PI and the RRH-prodrugs were tested for cellular uptake on several cell lines which included B16 (murine melanoma), Hepa 1-6 (mouse hepatoma), SK-OV-3 (also SKOV-3, human ovarian carcinoma), OVCAR-3 (human ovarian carcinoma), Jurkat (human T-lymphocyte), 293 (human embryonic kidney), and MC38 (mouse colon carcinoma) cells. Adherent cells were plated at 2.5×10^5 cells/well on 6-well plates 24 h prior to testing. The growth media was removed from individual wells and the drug/prodrug was immediately added to the well with the mixing chamber. Final drug/prodrug concentrations were 0.150 μmol in 220 μl total volume (20 μl OS, 200 μl ITG). After 30 sec the drug solution was removed (aspirated) and 2 ml complete media was added to the cells. […] Fluorescent microscopy studies were conducted with a three laser LSM 510 confocal microscope, an Axiovert S100 fluorescent microscope, or an Axioplan2 fluorescent microscope (all Zeiss) equipped with filter sets for the rhodamine fluorescence channel (λex=BP 450/12, λem=LP 590 nm filter set) and the fluorescein fluorescent channel (λex=BP 546/90, λem=LP 515 nm filter set). […]
# Hepa 1-6 cells = assay: Calcein AM live cell marker after prodrug treatment; format: cell-based, mouse; conditions: following treatment with prodrug
# Experimental: as §1
compound,measurement,setting,value
"CCCCCCCCCCCCNC(=O)CCC(=CCC(=O)O)C(=O)Nc1ccc2c(c1)c(-c1ccccc1)[n+](CCC[N+](C)(CC)CC)c1cc(NC(=O)C(=CCC(=O)O)CCC(=O)NCCCCCCCCCCCC)ccc21.[I-].[I-] [III, 3,8-bis-[2-(2 carboxyethylidene)-4-(dodecarbamoyl)-1-oxo-butylamine] 5-(3,3-diethyl-3-methylammoniumpropyl) 6-phenyl phenanthridinium diiodide]",survival,MC38 tumor,increased survival
same,labeling of microtumors (0.1-1 mm),SK-OV-3 ovarian tumors,heavily labeled throughout the tumor
same,depth of labeling of large tumors (5-7 mm),SK-OV-3 ovarian tumors; 4-5 wks after inoculation,about 500 microns
same,survival of the perfusion procedure,SK-OV-3 ovarian tumors; sacrificed 3-5 h later,All animals survived the perfusion well
"CC[N+](C)(CC)CCC[n+]1c(-c2ccccc2)c2cc(N)ccc2c2ccc(N)cc21.[I-].[I-] [PI, Propidium iodide, reference compound]",PI uptake in cells,cells [1],very little PI uptake in cells
"CCCCCCCCCCCCCCCCCC[Si](C)(C)Nc1ccc2c(c1)c(-c1ccccc1)[n+](CCC[N+](C)(CC)CC)c1cc(N[Si](C)(C)CCCCCCCCCCCCCCCCCC)ccc21.[I-].[I-] [II, 3,8-bis[((dimethyl)octadecylsilazyl)amine] 5-(3,3-diethyl-3-methylammoniumpropyl) 6-phenyl phenanthridinium diiodide]",cells both PI-positive and SYTOX Green positive,cells [2],less than 5%
same,cells both PI and calcein positive,Hepa 1-6 cells,approximately 86%
